Experimental data taken from article PMC9266460, “KSK-74: Dual Histamine H3 and Sigma-2 Receptor Ligand with Anti-Obesity Potential” (International Journal of Molecular Sciences, 2022).

Experiments:
sigma-1 receptor = biological target: sigma-1 receptor; design: method as in PMID 34908391; conditions: Figure 1; read-out: σ1R Ki; cited from earlier work
[1] = system: peritoneal adipose tissue; experiment: Leptin, resistin, IL-6 and MCP-1 levels in adipose tissue (ELISA); assay type: in vivo, female Wistar rats; conditions: for leptin levels in adipose tissue: vs palatable diet + vehicle unless worded otherwise
Method: The frozen peritoneal adipose tissue was weighed, and homogenates were prepared by homogenizing 1 g of tissue in 4 mL of 0.1 M phosphate buffer, pH 7.4, using the IKA-ULTRA-TURRAX T8 homogenizer. The adipose tissue homogenates were then used for biochemical assays.
To determine the levels of leptin, resistin, IL-6, and MCP-1 in adipose tissue, the standard ELISA Kit (Cat. No E0561Ra, Cat. No E0211Ra, Cat. No E0135Ra, Cat. No E0193Ra, Bioassay Technology Laboratory, Shanghai, China) was used. To determine the levels of protein, a standard spectrophotometric test (Cat. No 1-008-B210, Biomaxima S.A. Lublin, Poland) was used.

H3R = biological target: T1, H3R (Homo sapiens, UniProt Q9Y5N1); experiment: Affinity at the H3R (literature values); assay type: binding; conditions: H3R Ki relative to sigma-2 Ki
T1 construct: the Aequoscreen line co-expresses apoaequorin
T1 sequence (Q9Y5N1 whole entry): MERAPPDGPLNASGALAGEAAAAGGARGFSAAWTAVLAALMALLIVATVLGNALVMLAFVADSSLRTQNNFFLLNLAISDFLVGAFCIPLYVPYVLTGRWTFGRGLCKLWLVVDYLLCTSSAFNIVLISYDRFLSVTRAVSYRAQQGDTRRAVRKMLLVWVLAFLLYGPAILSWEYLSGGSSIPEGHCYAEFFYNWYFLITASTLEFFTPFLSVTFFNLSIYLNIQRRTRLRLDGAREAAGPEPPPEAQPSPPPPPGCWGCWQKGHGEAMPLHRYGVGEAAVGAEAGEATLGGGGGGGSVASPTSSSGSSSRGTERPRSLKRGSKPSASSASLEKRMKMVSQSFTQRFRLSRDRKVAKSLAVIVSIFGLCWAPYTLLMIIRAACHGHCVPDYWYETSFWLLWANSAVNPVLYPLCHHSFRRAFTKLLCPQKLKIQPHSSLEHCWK

[2] = KSK 10 mg/kg i.p., phentermine 7 mg/kg

For `CCC(=O)c1ccc(OCCCCCCN2CCN(c3ccncc3)CC2)cc1` [KSK-60], which Ki (sigma-1 receptor) is on record?
Its Ki is 248 nM.

And the “leptin levels in adipose tissue” value [1, 2]?
The value was “maintained leptin levels at the same level as rats in the control group fed standard feed”.

With `CCC(=O)c1ccc(OCCCCCCCCN2CCN(c3ccncc3)CC2)cc1` [KSK-74] as the molecule, how does the Ki (sigma-1 receptor) read?
Its Ki is 274 nM.

And the “IL-6 levels in adipose tissue vs palatable diet + vehicle” value ([1]; 10 mg/kg)?
The value was “reduced”.

What about the “MCP-1 level in adipose tissue vs palatable diet + vehicle” value ([1]; 10 mg/kg b.w.) of the same molecule?
The value was “decreased the level of MCP-1”.

What about the “resistin levels in adipose tissue vs palatable diet + vehicle” value [1, 2] of the same molecule?
The value was “reduced levels”.

And the “leptin levels in adipose tissue” value [1, 2]?
Its value is “reduced levels”.

What about the “affinity ratio H3/sigma-2 receptors” value (H3R) of the same molecule?
Its value is 0.59.
